Values of other authors in publication PMC5201331, “Subchronic Toxicities of HZ1006, a Hydroxamate-Based Histone Deacetylase Inhibitor, in Beagle Dogs and Sprague-Dawley Rats” (International Journal of Environmental Research and Public …, 2016).

Tests used:
rats = tested on: rats; design: method as in PMID 19903873; conditions: rats, 20, 50 or 150 mg/kg/day, 26 weeks orally dosed daily with 4-week recovery; cited from earlier work
dogs = tested on: dogs; design: method as in PMID 19903873; conditions: 26 weeks orally dosed daily with 4-week recovery; cited from earlier work
patients = tested on: patients; design: method as in PMID 12440223; conditions: day-1 and -5 schedule every 21 days; cited from earlier work

Row | SMILES | no-observed adverse effect level (rats) | no-observed adverse effect level (dogs) [mg/kg/day] | MTD (patients) [mg/m^2]
1 | O=C(CCCCCCC(=O)Nc1ccccc1)NO [vorinostat, suberoylanilide hydroxamic acid] | not established | 60 | 
2 | C/C=C1\NC(=O)[C@H]2CSSCC/C=C/[C@H](CC(=O)N[C@H](C(C)C)C(=O)N2)OC(=O)[C@H](C(C)C)NC1=O [depsipeptide] |  |  | 17.8
